Source: US20080234280A1, “Use of Mc4 Receptor Agonist Compounds” (priority 2005, published 2008)

Test system: Female beagle dogs
Assay: dog urethral pressure profilometry (Test A)
Assay type: in vivo
Details: anaesthetised female beagle dog; for Mean peak urethral pressure (PUP): i.v. infusion over 15 minutes in saline; for PUP increase vs. baseline: i.v. infusion over 15 minutes, baseline (vehicle) PUP 30 mmHg
Procedure: Female beagle dogs (10-15 kg) are anaesthetised with sodium pentobarbitone (60 mg/mL solution) administered intravenously (IV) at 0.5 ml/kg via the right cephalic vein. Immediately following induction of anaesthesia the dog is intubated and respiration supported by artificial ventilation with oxygen. End tidal CO2 is monitored continuously, using a Datex CO2/O2 monitor and maintained between 4.5 and 4.8% and body temperature maintained between 37° C. and 38° C. An incision is made in the right medial thigh and a polyethylene catheter (6F) inserted into the right femoral vein for administration of compounds and fluid maintenance; immediately venous access is achieved a bolus IV dose of α-chloralose (1% w/v) is administered at 35 mg/kg. A polyethylene catheter (4F) is inserted into the right femoral artery for blood sampling. An incision is made in the right foreleg and the brachial vein and artery isolated, maintenance of anaesthesia is achieved with α-chloralose/borax administered IV at the rate of 10 mg/kg/h via a polyethylene catheter (6F) inserted into the right brachial vein. A laparotomy is performed from the umbilicus to the top of the pubic symphysis via the midline to expose the peritoneum in order to expose the bladder. Both ureters are cannulated towards the kidneys with polyethylene catheters (6F) and urine collected externally; the bladder is catheterised through the dome with a polyethylene catheter (6F), which is in turn connected to a pressure transducer. In order to maintain constant bladder pressure at 10-15 mmHg, urine is removed and ambient temperature saline infused into the bladder. Immediately following the completion of the surgical procedures a further bolus dose of α-chloralose/borax solution is administered IV at 35 mg/kg and the animal allowed to stabilise for a period period ca. 1 hr, during which time haemodynamic and urological parameters were monitored.
Urethral tone (peak urethral pressure (PUP), functional urethral length (FUL) and closing pressure (CP)) is assessed with the aid of an 8F Millar pressure transducer (Millar Instruments, Texas, US) inserted into the bladder through the external meatus. The urethral Millar pressure transducer is then retracted along the length of the urethra (urethral pull through) at a rate of 1 cm/min enabling the determination of PUP, FUL and CP. Urethral pull throughs are repeated every 6 min until at least 4 reproducible urethral profiles are observed. Subsequently increasing concentrations of test compound or vehicle is injected intravenously utilising either a bolus dose or constant infusion and at least a further 4 urethral pull throughs carried out at each concentration investigated. Changes in the PUP, FUL or CP are indicative of compound activity on lower urinary tract function. • Investigation of bladder capacity and external urethral sphincter (EUS) function in the spontaneously hypertensive rat:
was tested in the dog urethral pressure model (Test A) described above. The compound was dissolved in saline (vehicle) and administered by i.v. infusion over a period of 15 minutes, with at least 5 urethral pressure measurements being taken at each dose level during infusion and for 15 minutes post-infusion.

## CO[C@H]1CN(C(=O)[C@@H]2CN(c3cccnn3)C[C@H]2c2ccc(F)cc2F)CC[C@]1(OC)c1ccccc1 [Example 8]
Dose 1.0 mg/kg
  Mean peak urethral pressure (PUP): 32 mmHg
  PUP increase vs. baseline: 7%
Dose 2.0 mg/kg
  Mean peak urethral pressure (PUP): 36 mmHg
  PUP increase vs. baseline: 20%
Dose 3.0 mg/kg
  Mean peak urethral pressure (PUP): 35 mmHg
  PUP increase vs. baseline: 17%
